Values after ≈ are worked out from the molar mass of the structure shown.
Columns and labels:
Type in all cases: cell-based
[1] = system: Staphylococcus aureus; experiment: Antimicrobial well method, zone of inhibition
Method: (§1) Antimicrobial activity was carried out as described previously. Briefly, 20 mL of sterile Mueller Hinton agar (MHA) was poured in the petri plates and kept for solidification. After solidification, the test cultures were swabbed on the top of the media and kept for 10 min to dry. The required concentration (1 mg/well) of synthesized compounds 5a–l was added to each well and left for 30 min at RT for compound diffusion. Ketoconazole (fungi) and streptomycin (bacteria) used for positive controls. The zone of inhibition was recorded in mm and the experiment was repeated twice.

[2] = system: Proteus vulgaris; experiment: Antimicrobial well method, zone of inhibition
Method: as §1

[3] = system: Micrococcus luteus; experiment: Antimicrobial well method, zone of inhibition
Method: as §1

[4] = system: Shigella flexneri; experiment: Antimicrobial well method, zone of inhibition
Method: as §1

[5] = system: Salmonella typhimurium; experiment: Antimicrobial well method, zone of inhibition; details: Salmonella enterica
Method: as §1

[6] = system: Staphylococcus epidermidis; experiment: Antimicrobial well method, zone of inhibition
Method: as §1

[7] = system: Candida albicans; experiment: Antimicrobial well method, zone of inhibition; details: 1 mg/well
Method: as §1

[8] = system: Enterobacter aerogenes; experiment: Antimicrobial well method, zone of inhibition; details: Klebsiella aerogenes
Method: as §1

[9] = system: Malassezia pachydermatis; experiment: Antimicrobial well method, zone of inhibition
Method: as §1

[10] = system: Klebsiella pneumoniae; experiment: Antimicrobial well method, zone of inhibition
Method: as §1

[11] = system: Salmonella paratyphi-B; experiment: Antimicrobial well method, zone of inhibition
Method: as §1

[12] = system: Staphylococcus aureus-MRSA; experiment: Antimicrobial well method, zone of inhibition
Method: as §1

[13] = system: A549 cells; experiment: Cytotoxicity, aqueous one solution reagent
Method: (§2) The cytotoxic study was carried out as reported previously. Briefly, IMR90, HepG-2, and A549 cells were grown in DMEM (Dulbecco’s Modified Eagle Medium) that contained 10% fetal bovine serum and 1% antibiotics. A total of 15 × 10^3 cells/well were seeded in 96-well plates and incubated under humidified conditions. Cells were treated with varying concentrations of synthesized triazoles for 24 h. After a 24 h treatment, 20 µL aqueous one solution reagent was added to each well and incubated for 3–4 h under a humidified condition. For IMR90 cells, MTT (MTT = 3-(4,5-dimethyl-2-thiazolyl)-2,5-diphenyl-2H-tetrazolium bromide) (5 mg/mL) was added and incubated for 3–4 h in the dark. After incubation, 100 µL of a 10% SDS (Sodium Dodecyl Sulfate) solution (0.01% HCl) was added to each well. The data was taken using an ELISA (enzyme-linked immunosorbent assay) reader at the absorbance of 490 nm for HepG-2 and A549 cells and 570 nm for IMR90 cells. The cell death was calculated using the following formula: Inhibition (%) = ((A − B)/A) × 100 (A—control group, B—treated group).

[14] = system: HepG-2 cells; experiment: Cytotoxicity, aqueous one solution reagent
Method: as §2

[15] = system: IMR90 cells; experiment: Cytotoxicity on normal cells, MTT; details: IMR-90, human normal IMR90 cells, 24 h treatment, read-out: IC50 against IMR90
Method: as §2

[16] = system: Staphylococcus aureus; experiment: Minimum inhibitory concentration (MIC); details: read-out: Minimum inhibitory concentration
Method: (§3) The MIC experiment was carried out according to the standard reference methods. Briefly, the required concentrations of synthesized compounds 5a–l were dissolved in DMSO (Dimethylsulfoxide) in concentrations of 500 µg/mL, 250 µg/mL, 125 µg/mL, 62.5 µg/mL, 31.25 µg/mL, 15.6 µg/mL, and […]. An inoculum of 100 µL from each well (96-well plate) was inoculated. For the positive control, ketoconazole (fungi) and streptomycin (bacteria) was used. The MIC values for the tested bacteria were identified as the lowest inhibiting concentration of compound on the agar plate in visual growth.

[17] = system: Proteus vulgaris; experiment: Minimum inhibitory concentration (MIC); details: read-out: Minimum inhibitory concentration
Method: as §3

[18] = system: Micrococcus luteus; experiment: Minimum inhibitory concentration (MIC); details: read-out: Minimum inhibitory concentration
Method: as §3

[19] = system: Shigella flexneri; experiment: Minimum inhibitory concentration (MIC)
Method: as §3

[20] = system: Salmonella typhimurium; experiment: Minimum inhibitory concentration (MIC); details: Salmonella enterica; Salmonella typhimurium; read-out: Minimum inhibitory concentration
Method: as §3

[21] = system: Staphylococcus epidermidis; experiment: Minimum inhibitory concentration (MIC); details: read-out: Minimum inhibitory concentration
Method: as §3

[22] = system: Enterobacter aerogenes; experiment: Minimum inhibitory concentration (MIC); details: Klebsiella aerogenes; Enterobacter aerogenes; read-out: Minimum inhibitory concentration
Method: as §3

[23] = system: Klebsiella pneumoniae; experiment: Minimum inhibitory concentration (MIC); details: read-out: Minimum inhibitory concentration
Method: as §3

[24] = system: Salmonella paratyphi-B; experiment: Minimum inhibitory concentration (MIC)
Method: as §3

[25] = system: Staphylococcus aureus-MRSA; experiment: Minimum inhibitory concentration (MIC); details: Staphylococcus aureus-MRSA; read-out: Minimum inhibitory concentration
Method: as §3

[26] = system: tested bacteria; experiment: Antimicrobial well method, result in words; details: 1 mg/mL concentration
Method: as §1

`C[C@@H]([C@@H](c1ccccc1)n1cc(CO)nn1)N1CCCC1` [5a, (1R,2S)-1-(1-(1-Phenyl-2-(pyrrolidin-1-yl)propyl)-1H-1,2,3-triazol-4-yl)methanol] gave a zone of inhibition at 1 mg/well [1] of 12 mm, a zone of inhibition at 1 mg/well [2] of 17 mm and a zone of inhibition at 1 mg/well [3] of 28 mm. For the same compound, the zone of inhibition at 1 mg/well [4] was 22 mm, the zone of inhibition at 1 mg/well [5] was 14 mm and the zone of inhibition at 1 mg/well [6] was 14 mm. It also gave a zone of inhibition [7] of 14 mm, a zone of inhibition at 1 mg/well [8] of 14 mm and a zone of inhibition at 1 mg/well [9] of 12 mm. It also gave a zone of inhibition at 1 mg/well [10] of 20 mm, a zone of inhibition at 1 mg/well [11] of 14 mm and a zone of inhibition at 1 mg/well [12] of 13 mm. For the same compound, the “cytotoxic / anticancer activity against A549 cells” value [13] was “promising anticancer activity”, the IC50 ([13]; Homo sapiens, 24 h treatment, read-out: IC50 against A549) was 190 ± 1.35 µM and the “cytotoxic activity against HepG-2 cells” value [14] was “moderate activity”. For the same compound, the IC50 ([14]; Homo sapiens, HepG2, 24 h treatment, read-out: IC50 against HepG-2) was 275 ± 1.52 µM, the IC50 [15] was > 250 µM and the MIC [16] was 500 µg/mL (≈ 1750 µM). It also gave an MIC [17] of 125 µg/mL (≈ 436 µM), an MIC [18] of 31.2 µg/mL (≈ 109 µM) and an MIC [19] of 62.5 µg/mL (≈ 218 µM). The MIC [20] was 250 µg/mL (≈ 873 µM), the MIC [21] was 250 µg/mL (≈ 873 µM) and the MIC [22] was 250 µg/mL (≈ 873 µM). It also gave an MIC [23] of 62.5 µg/mL (≈ 218 µM), an MIC [24] of 250 µg/mL (≈ 873 µM) and an MIC [25] of 250 µg/mL (≈ 873 µM). The “antimicrobial activity against tested bacteria” value [26] was “promising activity”.
